{
  "source": "patent US5804402A",
  "about": "“Reagent” (priority 1995, dated 1998)",
  "molecular_target": "T1, L-alanine dehydrogenase (A.D) (Bacillus subtilis, UniProt Q08352)",
  "T1 sequence (Q08352 1-378)": "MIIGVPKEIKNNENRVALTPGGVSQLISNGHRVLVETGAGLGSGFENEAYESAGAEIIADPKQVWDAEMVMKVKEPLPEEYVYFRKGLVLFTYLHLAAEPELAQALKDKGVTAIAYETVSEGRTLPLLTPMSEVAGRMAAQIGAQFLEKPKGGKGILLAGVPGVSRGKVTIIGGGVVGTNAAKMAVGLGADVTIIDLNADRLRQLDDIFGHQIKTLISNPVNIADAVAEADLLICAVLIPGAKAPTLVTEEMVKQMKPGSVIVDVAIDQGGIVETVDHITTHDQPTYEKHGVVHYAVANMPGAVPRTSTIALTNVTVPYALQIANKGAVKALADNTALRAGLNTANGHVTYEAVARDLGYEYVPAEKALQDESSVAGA",
  "assay": "Relative activity of substrate with L-alanine dehydrogenase",
  "format": "biochemical",
  "conditions": "relative to L-alanine (100%)",
  "source_text": "If L-alanine dehydrogenase (A.D) is used as the enzyme in a reaction system similar to that used for leucine dehydrogenase, a suitable substrate and its activity relative to L-alanine (100%) is […]",
  "data": [
    {"smiles": "N[C@@H](CO)C(=O)O", "note": "[L-serine]", "values": [
      {"measurement": "Relative Activity", "value": 5, "unit": "%"}
    ]}
  ]
}
